Each compound was assayed against T1, ATM (Homo sapiens, UniProt Q13315) (assay: ATM inhibition test (phosphorylation of Chk2 generated by ionizing radiation, AlphaScreen SureFire)). Settings: phosphorylated Chk2 in NCI-H460 cells, ionizing radiation 8Gy, 1 hour after test compound treatment; read-out: ATM inhibitory activity.
T1 construct: detecting phosphorylation of Chk2 in a human non-small cell lung cancer cell line NCI-H460 (ATCC company); host or cells: NCI-H460 human non-small cell lung cancer cells
T1 sequence (Q13315 whole entry): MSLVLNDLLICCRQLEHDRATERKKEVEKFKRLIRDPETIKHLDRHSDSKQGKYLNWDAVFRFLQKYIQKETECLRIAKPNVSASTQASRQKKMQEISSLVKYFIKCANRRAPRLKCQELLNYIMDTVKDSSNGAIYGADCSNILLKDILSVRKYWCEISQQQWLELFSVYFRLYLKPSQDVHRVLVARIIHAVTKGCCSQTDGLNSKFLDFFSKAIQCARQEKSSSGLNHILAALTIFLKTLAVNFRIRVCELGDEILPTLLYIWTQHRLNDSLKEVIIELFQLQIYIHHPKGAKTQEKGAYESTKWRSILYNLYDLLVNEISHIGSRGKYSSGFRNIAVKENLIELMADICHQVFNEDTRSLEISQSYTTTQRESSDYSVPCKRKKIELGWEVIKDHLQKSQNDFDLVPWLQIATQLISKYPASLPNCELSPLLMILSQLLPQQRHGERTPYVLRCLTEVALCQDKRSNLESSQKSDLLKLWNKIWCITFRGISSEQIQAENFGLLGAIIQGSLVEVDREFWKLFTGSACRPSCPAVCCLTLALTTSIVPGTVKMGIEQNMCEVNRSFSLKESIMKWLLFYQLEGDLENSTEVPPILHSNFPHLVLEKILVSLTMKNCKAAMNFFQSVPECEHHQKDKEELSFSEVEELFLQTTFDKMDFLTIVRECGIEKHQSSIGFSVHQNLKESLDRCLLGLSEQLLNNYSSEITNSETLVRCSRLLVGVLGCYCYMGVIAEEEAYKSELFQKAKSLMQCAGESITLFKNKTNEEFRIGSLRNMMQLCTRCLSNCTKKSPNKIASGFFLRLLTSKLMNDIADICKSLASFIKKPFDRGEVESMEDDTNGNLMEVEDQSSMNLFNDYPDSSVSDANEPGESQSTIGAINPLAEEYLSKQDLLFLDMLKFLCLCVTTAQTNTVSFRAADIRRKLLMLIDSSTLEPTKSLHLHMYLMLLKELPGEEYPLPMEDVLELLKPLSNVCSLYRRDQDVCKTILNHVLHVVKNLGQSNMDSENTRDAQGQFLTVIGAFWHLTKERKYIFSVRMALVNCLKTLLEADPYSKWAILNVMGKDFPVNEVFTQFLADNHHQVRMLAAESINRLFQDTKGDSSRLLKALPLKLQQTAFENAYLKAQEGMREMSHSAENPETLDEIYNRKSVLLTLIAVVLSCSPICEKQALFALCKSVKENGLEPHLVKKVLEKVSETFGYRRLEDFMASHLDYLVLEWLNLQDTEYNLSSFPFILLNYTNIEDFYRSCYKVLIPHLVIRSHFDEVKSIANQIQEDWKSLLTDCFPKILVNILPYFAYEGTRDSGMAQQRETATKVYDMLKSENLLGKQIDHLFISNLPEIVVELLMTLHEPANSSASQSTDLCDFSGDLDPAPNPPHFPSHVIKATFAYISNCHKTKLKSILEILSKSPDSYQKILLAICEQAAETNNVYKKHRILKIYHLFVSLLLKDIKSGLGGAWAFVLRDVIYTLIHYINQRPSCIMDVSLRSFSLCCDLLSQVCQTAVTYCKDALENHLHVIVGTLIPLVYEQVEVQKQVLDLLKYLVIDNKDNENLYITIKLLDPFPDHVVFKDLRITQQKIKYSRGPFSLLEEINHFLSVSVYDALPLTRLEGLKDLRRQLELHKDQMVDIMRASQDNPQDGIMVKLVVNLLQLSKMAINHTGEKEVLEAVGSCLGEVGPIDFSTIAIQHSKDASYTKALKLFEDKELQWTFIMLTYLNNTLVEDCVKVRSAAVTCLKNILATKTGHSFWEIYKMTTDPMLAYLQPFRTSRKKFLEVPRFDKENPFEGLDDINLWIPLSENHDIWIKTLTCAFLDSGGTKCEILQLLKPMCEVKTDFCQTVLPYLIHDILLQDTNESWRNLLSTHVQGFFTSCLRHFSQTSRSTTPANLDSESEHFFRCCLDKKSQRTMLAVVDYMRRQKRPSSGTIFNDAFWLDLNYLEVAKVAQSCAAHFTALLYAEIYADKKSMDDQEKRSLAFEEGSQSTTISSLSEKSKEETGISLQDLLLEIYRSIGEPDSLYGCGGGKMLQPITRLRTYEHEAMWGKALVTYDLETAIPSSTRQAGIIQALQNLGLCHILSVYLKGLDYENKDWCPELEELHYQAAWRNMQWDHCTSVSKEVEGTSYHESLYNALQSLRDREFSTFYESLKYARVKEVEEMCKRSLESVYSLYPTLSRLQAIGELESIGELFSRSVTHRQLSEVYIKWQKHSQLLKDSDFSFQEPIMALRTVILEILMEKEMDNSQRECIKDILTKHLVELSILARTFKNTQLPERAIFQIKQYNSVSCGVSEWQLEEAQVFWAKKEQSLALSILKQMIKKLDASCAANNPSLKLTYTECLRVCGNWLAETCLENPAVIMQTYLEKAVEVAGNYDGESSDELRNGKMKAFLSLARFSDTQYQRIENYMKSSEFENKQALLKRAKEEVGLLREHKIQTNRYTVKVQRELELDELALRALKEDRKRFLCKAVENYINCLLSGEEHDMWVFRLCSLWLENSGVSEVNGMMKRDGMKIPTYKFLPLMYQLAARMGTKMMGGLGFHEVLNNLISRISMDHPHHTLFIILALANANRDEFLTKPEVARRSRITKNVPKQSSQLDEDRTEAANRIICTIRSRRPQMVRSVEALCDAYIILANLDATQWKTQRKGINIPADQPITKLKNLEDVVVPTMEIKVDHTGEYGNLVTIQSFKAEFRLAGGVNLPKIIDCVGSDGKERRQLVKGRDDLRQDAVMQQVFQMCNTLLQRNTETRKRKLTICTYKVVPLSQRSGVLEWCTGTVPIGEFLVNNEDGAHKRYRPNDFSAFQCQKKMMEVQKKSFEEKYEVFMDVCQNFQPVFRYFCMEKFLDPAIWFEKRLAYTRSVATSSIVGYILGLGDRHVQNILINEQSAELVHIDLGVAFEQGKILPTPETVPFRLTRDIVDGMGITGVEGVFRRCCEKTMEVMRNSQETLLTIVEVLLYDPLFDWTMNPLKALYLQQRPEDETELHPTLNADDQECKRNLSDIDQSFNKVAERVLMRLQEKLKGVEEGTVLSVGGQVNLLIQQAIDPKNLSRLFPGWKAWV
Assay type: cell-based
Method in brief: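 NCI-H460 cells, compound 1 h pre-treatment, 8Gy IR, further 1 h at 37° C in 5% CO2. Read-out: phospho-Chk2 via AlphaScreen SureFire. % inhibition relative to IR-induced signal window (irradiated vs non-irradiated drug-free wells).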

SMILES	IC50 [nM]
N#Cc1ccc(CNc2ccc3c(c2)Sc2cccc(-c4cc(N5CCOCC5)cc(=O)[nH]4)c2S3)s1 [Example 1-12-51, 5-(((6-(4-Morpholino-6-oxo-1,6-dihydropyridin-2-yl)thianthren-2-yl)amino)methyl)thiophene-2-carbonitrile]	100 to 500
Cc1cnc(CNc2ccc3c(c2)Cc2cccc(-c4cc(N5CCOCC5)cc(=O)[nH]4)c2O3)s1 [Example 2-14-47, 6-(7-(((5-Methylthiazol-2-yl)methyl)amino)-9H-xanthen-4-yl)-4-morpholino pyridin-2(1H)-one]	100 to 500
CC(Nc1ccc2c(c1)Cc1cccc(-c3cc(N4CCOCC4)cc(=O)[nH]3)c1O2)c1cccnc1 (single isomer, unassigned) [Example 2-36-2, 4-Morpholino-6-(7-((1-(pyridin-3-yl)ethyl)amino)-9H-xanthen-4-yl)pyridin-2(1H)-one]	100 to 500
O=c1cc(N2CCOCC2)cc(-c2cccc3c2Sc2ccc(NCc4cccnc4)cc2S3)[nH]1 [Example 1-12-25, 4-Morpholino-6-(7-((pyridin-3-ylmethyl)amino)thianthren-1-yl)pyridin-2 (1H)-one]	100 to 500
O=c1cc(N2CCOCC2)cc(-c2cccc3c2Sc2ccc(NCCN4CC(F)(F)C4)cc2S3)[nH]1 [Example 1-10-3, 6-(7-((2-(3,3-Difluoroazetidin-1-yl)ethyl)amino)thianthren-1-yl)-4-morpholinopyridin-2(1H)-one]	100 to 500
Cc1ccnc(C(CF)Nc2ccc3c(c2)Sc2cccc(-c4cc(N5CCOCC5)cc(=O)[nH]4)c2S3)c1 (stereo not drawn) [Example 1-12-133, 6(7-((2-Fluoro-1-(4-methylpyridin-2-yl)ethyl)amino)thianthren-1-yl)-4-morpholino pyridin-2(1H)-one]	100 to 500
COc1cccc(CCN2CCC(Nc3ccc4c(c3)Cc3cccc(-c5cc(N6CCOCC6)cc(=O)[nH]5)c3O4)CC2)c1 [Example 2-30-11, 6-(7-((1-(3-Methoxyphenethyl)piperidin-4-yl)amino)-9H-xanthen-4-yl)-4-morpholino pyridin-2 (1H)-one]	100 to 500
CNc1ccc(CNc2ccc3c(c2)Sc2cccc(-c4cc(N5CCOCC5)cc(=O)[nH]4)c2S3)cn1 [Example 1-12-8, 6-(7-(((6-(Methylamino)pyridin-3-yl)methyl)amino)thianthren-1-yl)-4-morpholino pyridin-2(1H)-one]	100 to 500
CCOC(=O)c1cccc(CNc2ccc3c(c2)Cc2cccc(-c4cc(N5CCOCC5)cc(=O)[nH]4)c2O3)n1 [Example 2-14-73, Ethyl 6-(((5-(4-morpholino-6-oxo-1,6-dihydropyridin-2-yl)-9H-xanthen-2-yl)amino)methyl)picolinate]	100 to 500
CCCCN1CCC(Nc2ccc3c(c2)Cc2cccc(-c4cc(N5CCOCC5)cc(=O)[nH]4)c2O3)C1 (stereo not drawn) [Example 2-19-8, 6-(7-((1-Butylpyrrolidin-3-yl)amino)-9H-xanthen-4-yl)-4-morpholinopyridin-2(1H)-one]	100 to 500
O=c1cc(N2CCOCC2)cc(-c2cccc3c2Oc2ccc(NC4CCN(CC(O)c5ccccc5)CC4)cc2C3)[nH]1 (stereo not drawn) [Example 2-30-13, 6-(7-((1-(2-Hydroxy-2-phenylethyl)piperidin-4-yl)amino)-9H-xanthen-4-yl)-4-morpholino pyridin-2(1H)-one]	100 to 500
O=C1CCCN1c1cncc(CNc2ccc3c(c2)Cc2cccc(-c4cc(N5CCOCC5)cc(=O)[nH]4)c2O3)c1 [Example 2-2-67, 4-Morpholino-6-(7-(((5-(2-oxopyrrolidin-1-yl)pyridin-3-yl)methyl)amino)-9H-xanthen-4-yl)pyridin-2(1H)-one]	100 to 500
CC(Nc1ccc2c(c1)Sc1cccc(-c3cc(N4CCOCC4)cc(=O)[nH]3)c1S2)c1ccnc(Cl)n1 (stereo not drawn) [Example 1-12-81, 6-(7-((1-(2-Chloropyrimidin-4-yl)ethyl)amino)thianthren-1-yl)-4-morpholino pyridin-2 (1H)-one]	100 to 500
O=c1cc(N2CCOCC2)cc(-c2cccc3c2Oc2ccc(NC4CCN(Cc5cncc(Cl)c5)CC4)cc2C3)[nH]1 [Example 2-28-17, 6-(7-((1-((5-Chloropyridin-3-yl)methyl)piperidin-4-yl)amino)-9H-xanthen-4-yl)-4-morpholino pyridin-2(1H)-one]	100 to 500
O=c1cc(N2CCOCC2)cc(-c2cccc3c2Oc2ccc(NC4CCN(Cc5cc(C6CC6)ccn5)CC4)cc2C3)[nH]1 [Example 2-28-30, 6-(7-((1-((4-Cyclopropylpyridin-2-yl)methyl)piperidin-4-yl)amino)-9H-xanthen-4-yl)-4-morpholino pyridin-2(1H)-one]	100 to 500
O=C(CN1C2CCC1COC2)Nc1ccc2c(c1)Sc1cccc(-c3cc(N4CCOCC4)cc(=O)[nH]3)c1S2 [Example 1-7-2, 2-(3-Oxa-8-azabicyclo[3.2.1]octan-8-yl)-N-(6-(4-morpholino-6-oxo-1,6-dihydropyridin-2-yl)thianthren-2-yl)acetamide]	100 to 500
Cc1cnc(C(CN(C)C)Nc2ccc3c(c2)Sc2cccc(-c4cc(N5CCOCC5)cc(=O)[nH]4)c2S3)cn1 (stereo not drawn) [Example 1-32, 6-(7-((2-(dimethylamino)-1-(5-methylpyrazin-2-yl)ethyl)amino)thianthren-1-yl)-4-morpholinopyridin-2(1H)-one]	100 to 500

SMILES	IC50 [nM]
O=c1cc(N2CCOCC2)cc(-c2cccc3c2Oc2ccc(NCc4cncc(-n5cccn5)c4)cc2C3)[nH]1 [Example 2-2-55, 6-(7-(((5-(1H-Pyrazol-1-yl)pyridin-3-yl)methyl)amino)-9H-xanthen-4-yl)-4-morpholino pyridin-2 (1H)-one]	100 to 500
O=c1cc(N2CCOCC2)cc(-c2cccc3c2Oc2ccc(NC4CCN(CCCF)CC4)cc2C3)[nH]1 [Example 2-30-12, 6-(7-((1-(3-Fluoropropyl)piperidin-4-yl)amino)-9H-xanthen-4-yl)-4-morpholino pyridin-2(1H)-one]	500 to 2000
Cc1csc(CNc2ccc3c(c2)Sc2cccc(-c4cc(N5CCOCC5)cc(=O)[nH]4)c2S3)c1 [Example 1-12-58, 6-(7-(((4-Methylthiophen-2-yl)methyl)amino)thianthren-1-yl)-4-morpholino pyridin-2 (1H)-one]	100 to 500
CN(C)CCNc1ccc2c(c1)Sc1cccc(-c3cc(N4CCOCC4)cc(=O)[nH]3)c1S2 [Example 1-10-4, 6-(7-((2-(Dimethylamino)ethyl)amino)thianthren-1-yl)-4-morpholinopyridin-2(1H)-one]	100 to 500
O=c1cc(N2CCOCC2)cc(-c2cccc3c2Sc2ccc(NC4CCCN(C5CCCCC5)C4)cc2S3)[nH]1 (stereo not drawn) [Example 1-24-1, 6-(7-((1-Cyclohexylpiperidin-3-yl)amino)thianthren-1-yl)-4-morpholinopyridin-2(1H)-one]	100 to 500
Cn1cc(-c2cc(CNc3ccc4c(c3)Cc3cccc(-c5cc(N6CCOCC6)cc(=O)[nH]5)c3O4)ccn2)cn1 [Example 2-4, 6-(7-(((2-(1-methyl-1H-pyrazol-4-yl)pyridin-4-yl)methyl)amino)-9H-xanthen-4-yl)-4-morpholinopyridin-2(1H)-one]	< 100
CC(C)Oc1ccc(CCN2CCC(Nc3ccc4c(c3)Cc3cccc(-c5cc(N6CCOCC6)cc(=O)[nH]5)c3O4)CC2)cc1 [Example 2-30-18, 6-(7-((1-(4-Isopropoxyphenethyl)piperidin-4-yl)amino)-9H-xanthen-4-yl)-4-morpholino pyridin-2(1H)-one]	100 to 500
COc1ncc(CNc2ccc3c(c2)Cc2ccnc(-c4cc(N5CCOCC5)cc(=O)[nH]4)c2O3)cn1 [Example 2-42-1, 6-(7-(((2-Methoxypyrimidin-5-yl)methyl)amino)-5H-chromeno[2,3-c]pyridin-1-yl)-4-morpholinopyridin-2(1H)-one]	500 to 2000
O=c1cc(N2CCOCC2)cc(-c2cccc3c2Sc2ccc(NC(CO)CN4CCCC4)cc2S3)[nH]1 (stereo not drawn) [Example 1-37-3, 6-(7-((1-Hydroxy-3-(pyrrolidin-1-yl)propan-2-yl)amino)thianthren-1-yl)-4-morpholino pyridin-2(1H)-one]	500 to 2000
CC(Nc1ccc2c(c1)Cc1cccc(-c3cc(N4CCOCC4)cc(=O)[nH]3)c1O2)c1nccs1 (stereo not drawn) [Example 2-14-43, 4-Morpholino-6-(7-((1-(thiazol-2-yl)ethyl)amino)-9H-xanthen-4-yl)pyridin-2 (1H)-one]	100 to 500
Cc1cnc(C(CCN(C)C)Nc2ccc3c(c2)Cc2cccc(-c4cc(=O)cc(N5CCOCC5)o4)c2O3)cn1 (single isomer, unassigned) [Example 12-6, 2-(7-((3-(Dimethylamino)-1-(5-methylpyrazine-2-yl)propyl)amino)-9H-xanthen-4-yl)-6-morpholino-4H-pyran-4-one]	100 to 500
CN(C)CC(=O)Nc1ccc2c(c1)Sc1cccc(-c3cc(N4CCOCC4)cc(=O)[nH]3)c1S2 [Example 1-7-1, 2-(dimethylamino)-N-(6-(4-morpholino-6-oxo-1,6-dihydropyridin-2-yl)thianthren-2-yl)acetamide]	500 to 2000
Cc1nccnc1CNc1ccc2c(c1)Cc1cccc(-c3cc(N4CCOCC4)cc(=O)[nH]3)c1O2 [Example 2-14-75, 6-(7-(((3-Methylpyrazin-2-yl)methyl)amino)-9H-xanthen-4-yl)-4-morpholino pyridin-2(1H)-one]	100 to 500
O=c1cc(N2CCOCC2)cc(-c2cccc3c2Oc2ccc(NCc4ccnc(Cl)c4)cc2S3)[nH]1 [Example 4-8-14, 6-(8-(((2-Chloropyridin-4-yl)methyl)amino)phenoxathiin-4-yl)-4-morpholino pyridin-2(1H)-one]	100 to 500
CCOC(=O)C(C)Nc1ccc2c(c1)Sc1cccc(-c3cc(N4CCOCC4)cc(=O)[nH]3)c1S2 (stereo not drawn) [Example 1-12-55, Ethyl 2-((6-(4-morpholino-6-oxo-1,6-dihydropyridin-2-yl)thianthren-2-yl)amino) propanoate]	100 to 500
CN1CCN(c2cc(CNc3ccc4c(c3)Cc3cccc(-c5cc(N6CCOCC6)cc(=O)[nH]5)c3O4)ccn2)CC1 [Example 2-22-2, 6-(7-(((2-(4-methylpiperazin-1-yl)pyridin-4-yl)methyl)amino)-9H-xanthen-4-yl)-4-morpholinopyridin-2(1H)-one]	100 to 500

From patent US9586951B2 (FUJIFILM Corporation, priority 2013, dated 2017)
